# From US20120040906A1, “PROTEIN TARGETS IN DISEASE” (NATIONAL UNIVERSITY OF IRELAND, GALWAY, priority 2009, published 2012)
# Key:
# [1] = test system: H9c2 cardiomyocytes; assay: real-time RT-PCR confirmation of microRNA expression during ER stress; type: cell-based, Rat; conditions: Tg 1 μM or Tm 1 μg/ml, 24 hours; for mir-7a expression, Real-time PCR (set I) / mir-18a expression, Real-time PCR (set I) / mir-20a expression, Real-time PCR (set I) / mir-24 expression, Real-time PCR (set I) / mir-25 expression, Real-time PCR (set I) / mir-93 expression, Real-time PCR (set I) / mir-98 expression, Real-time PCR (set I) / mir-103 expression, Real-time PCR (set I) / mir-106b expression, Real-time PCR (set I) / mir-107 expression, Real-time PCR (set I) / mir-133a expression, Real-time PCR (set I) / mir-133b expression, Real-time PCR (set I) / mir-206 expression, Real-time PCR (set I) / mir-322 expression, Real-time PCR (set I) / mir-351 expression, Real-time PCR (set I): untreated control = 1.000, set I; for mir-7a expression, Real-time PCR (set II) / mir-18a expression, Real-time PCR (set II) / mir-20a expression, Real-time PCR (set II) / mir-24 expression, Real-time PCR (set II) / mir-25 expression, Real-time PCR (set II) / mir-93 expression, Real-time PCR (set II) / mir-98 expression, Real-time PCR (set II) / mir-103 expression, Real-time PCR (set II) / mir-106b expression, Real-time PCR (set II) / mir-107 expression, Real-time PCR (set II) / mir-133a expression, Real-time PCR (set II) / mir-133b expression, Real-time PCR (set II) / mir-206 expression, Real-time PCR (set II) / mir-322 expression, Real-time PCR (set II) / mir-351 expression, Real-time PCR (set II): untreated control = 1.000, set II
# Text: Expression of muscle specific microRNAs; mir-206, mir-133a and mir-133b and several members of mir-17-92 oncogenic cluster were repressed during conditions of ER stress. Based on their differential expression profile during ER stress and their hitherto unexplored role in cardiovascular biology mir-7a, mir-351 and mir-322 were identified as primary microRNA targets in conditions of ER stress. In addition, the invention has been extended to the human ortholog, miR-125, of rat miR-351. Similarly, the invention extends to the human ortholog, miR-424, of rat miR-322. […], and hsa-miR-424 & rno-miR-322 are microRNAs having similar seed sequences in humans and rats respectively.
# (§1) Control, Untreated; Tg, thapsigargin (1 μM) for 24 hours, Tm, tunicamycin (1 μg/ml) for 24 hours. mir-7a, mir-351 and mir-322 are shown in bold face.
# [2] = test system: H9c2 cells; assay: RT-PCR for induction of Grp78/BiP; type: cell-based; conditions: 1 μM Tg, 1 μg/ml Tm for 24 hr, three independent experiments
# Protocol: (§2) Expression profiling of microRNAs during the conditions of Endoplasmic Reticulum (ER) stress in cardiomyocytes was performed. ER stress was induced by treatment with either thapsigargin, an inhibitor of the Sacroplasmic/Endoplasmic Reticulum Ca2+ATPase (SERCA) pump or tunicamycin (an inhibitor of N-linked glycosylation). RNA was isolated from three independent experiments where H9c2 cells were treated with thapsigargin (Tg) or tunicamycin (Tm) for 24 hours. RNAs from Tg and Tm treated cells were checked for induction of key ER resident chaperone Grp78/BiP by RT-PCR. Grp78/BiP is a central regulator of ER homeostasis due to its multiple functional roles in protein folding, ER calcium binding, and controlling of the activation of transmembrane ER stress sensors. […] Total RNA was isolated from H9c2 cells treated with 1 μM Tg, 1 μg/ml Tm for 24 hr and the expression levels of the indicated genes were analysed by RT-PCR.
# [3] = test system: H9c2 cardiomyocytes; assay: microarray analysis of microRNA expression during ER stress; type: cell-based, Rat; conditions: Tg 1 μM or Tm 1 μg/ml, 24 hours, untreated control = 1.000
# Protocol: as §2
# Next equal amounts of RNAs from each experiment were pooled and used for microarray analysis to minimize experimental variations. The experimental outline for the microarray analysis is illustrated in FIG. 2. The chips were spotted with 350 mature microRNAs of Rat as per Sanger miRBase database (Release 11.0). Each microRNA was spotted on the array nine times and for each RNA sample two chips were used. There were 16 sets of control probes on each array. There were greater than 10 positive controls (spike-in controls & 5S). There were greater than 10 negative controls (mismatch control). A 20-mer control RNA is spiked into each sample followed by labeling and hybridization. The control RNA had been computationally and experimentally verified not to cross-hybridize with the probes of any known microRNA transcript. The background-subtracted signals were used for statistical tests and clustering analysis.
# as §1
compound,measurement,setting,value
tunicamycin [Tm],"mir-7a expression, Real-time PCR (set I)",[1],1.140
same,"mir-18a expression, Real-time PCR (set I)",[1],1.090
same,"mir-20a expression, Real-time PCR (set I)",[1],1.340
same,"mir-24 expression, Real-time PCR (set I)",[1],0.930
same,"mir-25 expression, Real-time PCR (set I)",[1],0.906
same,"mir-93 expression, Real-time PCR (set I)",[1],0.800
same,"mir-98 expression, Real-time PCR (set I)",[1],1.480
same,"mir-103 expression, Real-time PCR (set I)",[1],0.960
same,"mir-106b expression, Real-time PCR (set I)",[1],1.060
same,"mir-107 expression, Real-time PCR (set I)",[1],0.590
same,"mir-133a expression, Real-time PCR (set I)",[1],0.750
same,"mir-133b expression, Real-time PCR (set I)",[1],0.480
same,"mir-206 expression, Real-time PCR (set I)",[1],0.570
same,"mir-322 expression, Real-time PCR (set I)",[1],0.840
same,"mir-351 expression, Real-time PCR (set I)",[1],0.290
same,"mir-7a expression, Real-time PCR (set II)",[1],1.650
same,"mir-18a expression, Real-time PCR (set II)",[1],0.640
same,"mir-20a expression, Real-time PCR (set II)",[1],0.650
same,"mir-24 expression, Real-time PCR (set II)",[1],0.760
same,"mir-25 expression, Real-time PCR (set II)",[1],0.760
same,"mir-93 expression, Real-time PCR (set II)",[1],0.550
same,"mir-98 expression, Real-time PCR (set II)",[1],0.750
same,"mir-103 expression, Real-time PCR (set II)",[1],0.500
same,"mir-106b expression, Real-time PCR (set II)",[1],0.737
same,"mir-107 expression, Real-time PCR (set II)",[1],0.630
same,"mir-133a expression, Real-time PCR (set II)",[1],0.730
same,"mir-133b expression, Real-time PCR (set II)",[1],0.510
same,"mir-206 expression, Real-time PCR (set II)",[1],0.604
same,"mir-322 expression, Real-time PCR (set II)",[1],0.610
same,"mir-351 expression, Real-time PCR (set II)",[1],0.230
same,induction of ER resident chaperone Grp78/BiP by RT-PCR,[2],induction of Grp78/BiP in all three experiments
same,"mir-7a expression, Microarray Analysis",[3],2.458
same,"mir-18a expression, Microarray Analysis",[3],0.550
same,"mir-20a expression, Microarray Analysis",[3],0.791
same,"mir-24 expression, Microarray Analysis",[3],0.672
same,"mir-25 expression, Microarray Analysis",[3],0.771
same,"mir-93 expression, Microarray Analysis",[3],0.524
same,"mir-98 expression, Microarray Analysis",[3],4.921
same,"mir-103 expression, Microarray Analysis",[3],0.571
same,"mir-106b expression, Microarray Analysis",[3],0.672
same,"mir-107 expression, Microarray Analysis",[3],0.601
same,"mir-133a expression, Microarray Analysis",[3],0.690
same,"mir-133b expression, Microarray Analysis",[3],0.641
same,"mir-206 expression, Microarray Analysis",[3],0.607
same,"mir-322 expression, Microarray Analysis",[3],0.113
same,"mir-351 expression, Microarray Analysis",[3],0.179
"C/C=C(/C)C(=O)O[C@H]1C(C)=C2[C@H]([C@@H]1OC(=O)CCCCCCC)[C@@](C)(OC(C)=O)C[C@H](OC(=O)CCC)[C@@]1(O)[C@H]2OC(=O)[C@@]1(C)O [Tg, thapsigargin]","mir-7a expression, Real-time PCR (set I)",[1],1.540
same,"mir-18a expression, Real-time PCR (set I)",[1],0.720
same,"mir-20a expression, Real-time PCR (set I)",[1],0.930
same,"mir-24 expression, Real-time PCR (set I)",[1],0.810
same,"mir-25 expression, Real-time PCR (set I)",[1],0.790
same,"mir-93 expression, Real-time PCR (set I)",[1],0.660
same,"mir-98 expression, Real-time PCR (set I)",[1],1.470
same,"mir-103 expression, Real-time PCR (set I)",[1],0.860
same,"mir-106b expression, Real-time PCR (set I)",[1],0.820
same,"mir-107 expression, Real-time PCR (set I)",[1],0.580
same,"mir-133a expression, Real-time PCR (set I)",[1],0.720
same,"mir-133b expression, Real-time PCR (set I)",[1],0.470
same,"mir-206 expression, Real-time PCR (set I)",[1],0.540
same,"mir-322 expression, Real-time PCR (set I)",[1],0.830
same,"mir-351 expression, Real-time PCR (set I)",[1],0.210
same,"mir-7a expression, Real-time PCR (set II)",[1],3.800
same,"mir-18a expression, Real-time PCR (set II)",[1],0.700
same,"mir-20a expression, Real-time PCR (set II)",[1],0.620
same,"mir-24 expression, Real-time PCR (set II)",[1],0.870
same,"mir-25 expression, Real-time PCR (set II)",[1],0.799
same,"mir-93 expression, Real-time PCR (set II)",[1],0.530
same,"mir-98 expression, Real-time PCR (set II)",[1],0.850
same,"mir-103 expression, Real-time PCR (set II)",[1],0.590
same,"mir-106b expression, Real-time PCR (set II)",[1],0.800
same,"mir-107 expression, Real-time PCR (set II)",[1],0.800
same,"mir-133a expression, Real-time PCR (set II)",[1],1.140
same,"mir-133b expression, Real-time PCR (set II)",[1],0.680
same,"mir-206 expression, Real-time PCR (set II)",[1],0.820
same,"mir-322 expression, Real-time PCR (set II)",[1],0.690
same,"mir-351 expression, Real-time PCR (set II)",[1],0.210
same,induction of ER resident chaperone Grp78/BiP by RT-PCR,[2],induction of Grp78/BiP in all three experiments
same,"mir-7a expression, Microarray Analysis",[3],1.341
same,"mir-18a expression, Microarray Analysis",[3],0.426
same,"mir-20a expression, Microarray Analysis",[3],0.770
same,"mir-24 expression, Microarray Analysis",[3],0.664
same,"mir-25 expression, Microarray Analysis",[3],0.633
same,"mir-93 expression, Microarray Analysis",[3],0.583
same,"mir-98 expression, Microarray Analysis",[3],3.822
same,"mir-103 expression, Microarray Analysis",[3],0.654
same,"mir-106b expression, Microarray Analysis",[3],0.638
same,"mir-107 expression, Microarray Analysis",[3],0.682
same,"mir-133a expression, Microarray Analysis",[3],0.595
same,"mir-133b expression, Microarray Analysis",[3],0.565
same,"mir-206 expression, Microarray Analysis",[3],0.683
same,"mir-322 expression, Microarray Analysis",[3],0.094
same,"mir-351 expression, Microarray Analysis",[3],0.141
